Literature values, collected in patent publication US20080317729A1, “Ammonium Salts and Ammonium Salt/Mineral Salt Clathrate Compounds for Use as Vehicle and Effective Form for Pharmaco-Medical Applications and for Use as Phase Transfer Agents for Chemical Applications” (priority 2004, published 2008).

- solubility: moderately dissoluble
Structure (SMILES): CCN(CC)CCOC(=O)c1ccc(N)cc1 [diprocainium carbonate]
